In PMC11121183, “Functional Characterization of a Spectrum of Genetic Variants in a Family with Succinic Semialdehyde Dehydrogenase Deficiency” (International Journal of Molecular Sciences, 2024):
Each block holds one molecule with its values, some of them ahead of it.

What was measured:
[1] = molecular target: T1, Succinic semialdehyde dehydrogenase (SSADH) (Homo sapiens, UniProt P51649, H180Y); experiment: intrinsic fluorescence titration (excitation […] nm); CD and Tm shift of about […] °C in support; assay type: binding
T1 construct: gene ALDH5A1; recombinant SSADH, amino acids 48–535, N-terminal His-tag
T1 sequence (P51649 48-535 H180Y): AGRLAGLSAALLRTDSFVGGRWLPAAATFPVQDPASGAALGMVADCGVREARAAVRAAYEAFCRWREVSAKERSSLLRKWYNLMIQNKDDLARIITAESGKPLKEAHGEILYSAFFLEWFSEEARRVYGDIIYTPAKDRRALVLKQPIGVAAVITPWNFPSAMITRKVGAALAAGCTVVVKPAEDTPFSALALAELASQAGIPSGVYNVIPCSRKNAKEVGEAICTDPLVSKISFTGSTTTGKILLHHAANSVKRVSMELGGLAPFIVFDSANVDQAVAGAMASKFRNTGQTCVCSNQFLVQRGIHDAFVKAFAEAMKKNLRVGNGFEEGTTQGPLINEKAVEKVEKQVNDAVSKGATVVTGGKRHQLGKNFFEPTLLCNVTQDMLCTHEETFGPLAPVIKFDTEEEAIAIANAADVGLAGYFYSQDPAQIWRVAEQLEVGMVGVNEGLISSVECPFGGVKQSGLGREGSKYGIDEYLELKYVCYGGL

[2] = molecular target: T2, Succinic semialdehyde dehydrogenase (SSADH) (Homo sapiens, UniProt P51649, H180Y/N255D); experiment: intrinsic fluorescence titration (excitation […] nm); assay type: binding
T2 construct: gene ALDH5A1; recombinant SSADH, amino acids 48–535, N-terminal His-tag
T2 sequence (P51649 48-535 H180Y/N255D): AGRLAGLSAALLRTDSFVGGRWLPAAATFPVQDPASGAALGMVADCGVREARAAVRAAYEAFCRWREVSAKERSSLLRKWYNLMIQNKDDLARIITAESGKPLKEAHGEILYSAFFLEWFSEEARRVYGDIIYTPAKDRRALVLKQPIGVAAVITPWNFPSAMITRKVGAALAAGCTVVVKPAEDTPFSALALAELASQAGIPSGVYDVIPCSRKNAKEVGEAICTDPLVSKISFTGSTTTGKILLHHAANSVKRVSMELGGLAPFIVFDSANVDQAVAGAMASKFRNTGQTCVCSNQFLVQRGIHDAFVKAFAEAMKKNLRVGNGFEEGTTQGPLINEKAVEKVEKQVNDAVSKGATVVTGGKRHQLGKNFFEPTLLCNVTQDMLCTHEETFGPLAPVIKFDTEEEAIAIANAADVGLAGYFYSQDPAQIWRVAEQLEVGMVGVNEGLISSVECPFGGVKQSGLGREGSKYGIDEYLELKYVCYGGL

[3] = molecular target: T3, Succinic semialdehyde dehydrogenase (SSADH) (Homo sapiens, UniProt P51649); experiment: intrinsic fluorescence titration (excitation […] nm); CD and Tm shift of about […] °C in support; assay type: binding
T3 construct: gene ALDH5A1; recombinant SSADH, amino acids 48–535, N-terminal His-tag
T3 sequence (P51649 48-535): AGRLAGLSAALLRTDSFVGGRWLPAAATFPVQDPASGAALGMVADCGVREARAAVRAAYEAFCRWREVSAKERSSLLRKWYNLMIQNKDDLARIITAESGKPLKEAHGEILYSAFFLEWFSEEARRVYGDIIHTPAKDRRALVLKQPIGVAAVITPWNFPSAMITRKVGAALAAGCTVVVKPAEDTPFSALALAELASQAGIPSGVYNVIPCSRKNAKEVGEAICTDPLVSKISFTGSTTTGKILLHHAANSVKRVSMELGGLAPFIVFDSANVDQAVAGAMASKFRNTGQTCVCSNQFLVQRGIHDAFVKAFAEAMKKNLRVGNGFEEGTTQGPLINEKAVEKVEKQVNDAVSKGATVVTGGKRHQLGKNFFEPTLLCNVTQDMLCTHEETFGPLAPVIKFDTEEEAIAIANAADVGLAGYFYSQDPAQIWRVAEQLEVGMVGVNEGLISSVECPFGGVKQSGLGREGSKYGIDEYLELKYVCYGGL

[4] = molecular target: T1, Succinic semialdehyde dehydrogenase (SSADH); experiment: purified enzyme turnover, NADH formation at […] nm ([…] SSA, […] NAD+); assay type: biochemical
[5] = molecular target: T3, Succinic semialdehyde dehydrogenase (SSADH); experiment: as above; assay type: biochemical
[6] = molecular target: the molecule itself; experiment: SEC; Superdex 200 (10/300), 100 mM potassium phosphate, 150 mM NaCl, pH 8; 0.1 to 5 mg/mL protein loaded; 280 nm signal

Kd [1]: 3 ± 1 µM
Kd [2]: 33 ± 13 µM
Kd [3]: 2.8 ± 0.3 µM
Molecule: NC(=O)c1ccc[n+]([C@@H]2O[C@H](COP(=O)([O-])OP(=O)(O)OC[C@H]3O[C@@H](n4cnc5c(N)ncnc54)[C@H](O)[C@@H]3O)[C@@H](O)[C@H]2O)c1 [NAD+]

purified enzyme turnover, NADH formation at 340 nm (10 μM SSA, 500 μM NAD+) [4]: 54 s⁻¹
purified enzyme turnover, NADH formation at 340 nm (10 μM SSA, 500 μM NAD+) [5]: 65 s⁻¹
Molecule: O=CCCC(=O)O [Succinic semialdehyde]

B1: Succinic semialdehyde dehydrogenase (SSADH), wildtype, recombinant (amino acids 48-535) (enzyme, human, UniProt P51649-1 48-535, looked up)
chain: AGRLAGLSAALLRTDSFVGGRWLPAAATFPVQDPASGAALGMVADCGVREARAAVRAAYEAFCRWREVSAKERSSLLRKWYNLMIQNKDDLARIITAESGKPLKEAHGEILYSAFFLEWFSEEARRVYGDIIHTPAKDRRALVLKQPIGVAAVITPWNFPSAMITRKVGAALAAGCTVVVKPAEDTPFSALALAELASQAGIPSGVYNVIPCSRKNAKEVGEAICTDPLVSKISFTGSTTTGKILLHHAANSVKRVSMELGGLAPFIVFDSANVDQAVAGAMASKFRNTGQTCVCSNQFLVQRGIHDAFVKAFAEAMKKNLRVGNGFEEGTTQGPLINEKAVEKVEKQVNDAVSKGATVVTGGKRHQLGKNFFEPTLLCNVTQDMLCTHEETFGPLAPVIKFDTEEEAIAIANAADVGLAGYFYSQDPAQIWRVAEQLEVGMVGVNEGLISSVECPFGGVKQSGLGREGSKYGIDEYLELKYVCYGGL
notes: No thrombin cleavage of the His-tag is described; also called WT SSADH; WT; source: E. coli BL21, purified (HisTrap, single step)
stoichiometry N [6]: 4

B2: Succinic semialdehyde dehydrogenase (SSADH) His180Tyr variant, recombinant (amino acids 48-535) (enzyme, human, UniProt P51649-1 48-535, looked up)
chain: AGRLAGLSAALLRTDSFVGGRWLPAAATFPVQDPASGAALGMVADCGVREARAAVRAAYEAFCRWREVSAKERSSLLRKWYNLMIQNKDDLARIITAESGKPLKEAHGEILYSAFFLEWFSEEARRVYGDIIYTPAKDRRALVLKQPIGVAAVITPWNFPSAMITRKVGAALAAGCTVVVKPAEDTPFSALALAELASQAGIPSGVYNVIPCSRKNAKEVGEAICTDPLVSKISFTGSTTTGKILLHHAANSVKRVSMELGGLAPFIVFDSANVDQAVAGAMASKFRNTGQTCVCSNQFLVQRGIHDAFVKAFAEAMKKNLRVGNGFEEGTTQGPLINEKAVEKVEKQVNDAVSKGATVVTGGKRHQLGKNFFEPTLLCNVTQDMLCTHEETFGPLAPVIKFDTEEEAIAIANAADVGLAGYFYSQDPAQIWRVAEQLEVGMVGVNEGLISSVECPFGGVKQSGLGREGSKYGIDEYLELKYVCYGGL
notes: No thrombin cleavage of the His-tag is described; also called H180Y; rs2760118 variant; source: E. coli BL21, purified (HisTrap, single step)
stoichiometry N [6]: 4
